Values of other authors as cited in patent US9624258B2, “Polymorph of regadenoson” (Biophore India Pharmaceuticals PVT. Ltd., priority 2013, dated 2017).

Experiments:
[1] = background statement
A2A adenosine receptor = A2A adenosine receptor (Homo sapiens, UniProt P29274); conditions: background statement on compound of U.S. Pat. No. 6,403,567
Chain of A2A adenosine receptor (P29274 whole entry): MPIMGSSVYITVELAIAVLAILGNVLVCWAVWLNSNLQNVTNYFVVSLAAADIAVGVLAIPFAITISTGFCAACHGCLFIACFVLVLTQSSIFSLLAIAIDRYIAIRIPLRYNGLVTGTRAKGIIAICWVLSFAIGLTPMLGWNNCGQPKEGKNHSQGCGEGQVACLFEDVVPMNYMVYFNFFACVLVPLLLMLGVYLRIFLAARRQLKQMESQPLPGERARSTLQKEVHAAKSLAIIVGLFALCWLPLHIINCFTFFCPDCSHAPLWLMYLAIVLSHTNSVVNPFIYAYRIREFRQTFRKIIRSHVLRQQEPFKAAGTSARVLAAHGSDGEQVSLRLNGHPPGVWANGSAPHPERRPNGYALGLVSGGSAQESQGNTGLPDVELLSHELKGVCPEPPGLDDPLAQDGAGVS

In the case of CNC(=O)c1cnn(-c2nc(N)c3ncn([C@@H]4O[C@H](CO)[C@@H](O)[C@H]4O)c3n2)c1 [Regadenoson, (1-{9-[(4S,2R,3R,5R)-3,4-dihydroxy-5-(hydroxymethyl)oxolan-2-yl)-6-aminopurin-2-yl}pyrazole-4-yl)-N-methylcarboxamide], the biological half-life [1] is listed as 2- to 3 minute and the “A2A adenosine receptor agonist selectivity” value (A2A adenosine receptor) is listed as “highly selective A2A adenosine receptor agonist”.
